Reference: US11168074B2, “Potassium channel inhibitors” (ACESION PHARMA ApS, priority 2017, dated 2021)

The molecules below were run against T1, human SK3 channel (hKCa2.3) (Homo sapiens, UniProt Q9UGI6) (assay: Automated patch clamping (QPatch 16 HT whole cell patch-clamp)). Conditions: HEK-293 cells stably expressing hKCa2.3; free calcium 400 nM; effects normalized to N-methyl bicuculline; read-out: IC50 in the Automated patch clamping assay (concentration needed to inhibit half of the SK channel activity).
T1 construct: expressed in transfected cells
Type: cell-based
Method: Automated whole cell patch-clamp recordings were performed using a QPatch 16 HT system and single-hole Qplates (Biolin Scientific, Sophion, Denmark) on HEK-293 cells stably expressing the human SK3 channel (hKCa2.3). Cells were cultured and prepared for experiments using normal cell culturing procedures. A total of 4-5 million cells were used per experiment. The Qpatch automatically generates giga sealing, whole-cell formation, compound application and recording of current. hKCa2.3 currents were recorded in symmetrical K^+ solutions, with an intracellular solution consisting of in mM: KCl 108; KOH/EGTA (ethylene glycol-bis(2-aminoethylether)-N,N,N′,N′-tetraacetic acid) 31.25/10; CaCl2 8.1; MgCl2 1.2; HEPES (2-[4-(2-hydroxyethyl)piperazin-1-yl]ethanesulfonic acid) 10; KOH 15, pH adjusted to pH=7.2 with HCl. The free calcium concentration was calculated to 400 nM. The extracellular solution consisted of in mM: KCl 150; CaCl2 0.1; MgCl2 3; HEPES 10; Glucose 10, pH=7.4 with KOH. The cells were held at 0 mV and hKCa2.3 currents were elicited by a linear voltage ramp from −80 mV to +80 mV (200 ms in duration) applied every 5th second. The compound application protocol consisted of 12 recording periods lasting from 50-200 s: 1) Baseline recordings in extracellular solution; 2) Application of the positive control N-methyl bicuculline (100 μM), which is characterized by full efficacy, fast on- and off-rate; 3-4) Wash-out; 5-9) Increasing concentrations of test compound to establish an IC50 value; 10-11) Wash-out; 12) positive control with compound NS8593 (N-[(1R)-1,2,3,4-tetrahydro-1-naphthalenyl]-1H-benzimidazol-2-amine) (1 μM). Data were sampled at 10 kHz, 4th order Bessel filter, cut-off frequency 3 kHz. Currents were compensated for run-down. Potency was quantified as the concentration needed to inhibit half of the SK channel activity and reported as an IC50 value. All effects of compounds of the present invention as tested were normalized to the observed inhibitory effect of N-methyl bicuculline.

IC50 [µM] | SMILES
< 10 | CCC(=O)NCC(Nc1nc2ccccc2[nH]1)c1cccc(C(F)(F)F)c1 (single isomer, unassigned) [Example 10a, N-{2-[(1H-1,3-benzodiazol-2-yl)amino]-2-[3-(trifluoromethyl)phenyl]ethyl}propanamide]
< 10 | CC(=O)NCCC(Nc1nc2ccccc2[nH]1)c1cccc(C(F)(F)F)c1 (single isomer, unassigned; (-)) [Example 14a, (−)-N-{3-[(1H-1,3-benzodiazol-2-yl)amino]-3-[3-(trifluoromethyl)phenyl]propyl}acetamide]
< 10 | CC(=O)N(C)CCC(Nc1nc2ccccc2[nH]1)c1cccc(C(F)(F)F)c1 (single isomer, unassigned; (-)) [Example 18a, (−)-N-{3-[(1H-1,3-benzodiazol-2-yl)amino]-3-[3-(trifluoromethyl)phenyl]propyl}-N-methylacetamide]
< 10 | CC(=O)NCCCC(Nc1nc2ccccc2[nH]1)c1cccc(C(F)(F)F)c1 (single isomer, unassigned; (-)) [Example 19a, (−)-N-{4-[(1H-1,3-benzodiazol-2-yl)amino]-4-[3-(trifluoromethyl)phenyl]butyl}acetamide]
< 10 | O=C(NCC(Nc1nc2ccccc2[nH]1)c1cccc(C(F)(F)F)c1)C1CC1 (stereo not drawn) [Example 3, N-{2-[(1H-1,3-benzodiazol-2-yl)amino]-2-[3-(trifluoromethyl)phenyl]ethyl}cyclopropanecarboxamide]
< 10 | O=C(NCC(Nc1nc2ccccc2[nH]1)c1cccc(C(F)(F)F)c1)c1ncon1 (stereo not drawn) [Example 4, N-{2-[(1H-1,3-benzodiazol-2-yl)amino]-2-[3-(trifluoromethyl)phenyl]ethyl}-1,2,4-oxadiazole-3-carboxamide; trifluoroacetic acid]
< 10 | N#Cc1cccc(C(=O)NCC(Nc2nc3ccccc3[nH]2)c2cccc(C(F)(F)F)c2)c1 (stereo not drawn) [Example 7, N-{2-[(1H-1,3-benzodiazol-2-yl)amino]-2-[3-(trifluoromethyl)phenyl]ethyl}-3-cyanobenzamide]
< 10 | O=C(NCC(Nc1nc2ccccc2[nH]1)c1cccc(C(F)(F)F)c1)c1cccc(F)c1 (stereo not drawn) [Example 9, N-{2-[(1H-1,3-benzodiazol-2-yl)amino]-2-[3-(trifluoromethyl)phenyl]ethyl}-3-fluorobenzamide]
< 10 | CCC(=O)NCC(Nc1nc2ccccc2[nH]1)c1cccc(C(F)(F)F)c1 (stereo not drawn) [Example 10, N-{2-[(1H-1,3-benzodiazol-2-yl)amino]-2-[3-(trifluoromethyl)phenyl]ethyl}propanamide]
< 10 | O=C1CCCN1CC(Nc1nc2ccccc2[nH]1)c1cccc(C(F)(F)F)c1 (stereo not drawn) [Example 11, 1-{2-[(1H-1,3-benzodiazol-2-yl)amino]-2-[3-(trifluoromethyl)phenyl]ethyl}pyrrolidin-2-one]
< 10 | O=C(NCCC(Nc1nc2c(CO)cccc2[nH]1)c1cccc(C(F)(F)F)c1)c1ccon1 (stereo not drawn) [Example 15, N-(3-{[4-(hydroxymethyl)-1H-1,3-benzodiazol-2-yl]amino}-3-[3-(trifluoromethyl)phenyl]propyl)-1,2-oxazole-3-carboxamide]
< 10 | CC(=O)NC(C)CC(Nc1nc2ccccc2[nH]1)c1cccc(C(F)(F)F)c1 (stereo not drawn) [Example 17, N-{4-[(1H-1,3-benzodiazol-2-yl)amino]-4-[3-(trifluoromethyl)phenyl]butan-2-yl}acetamide; trifluoroacetic acid]
< 10 | CC(=O)N(C)CCC(Nc1nc2ccccc2[nH]1)c1cccc(C(F)(F)F)c1 (stereo not drawn) [Example 18, N-{3-[(1H-1,3-benzodiazol-2-yl)amino]-3-[3-(trifluoromethyl)phenyl]propyl}-N-methylacetamide]
< 10 | CC(=O)NCCC(C)(Nc1nc2ccccc2[nH]1)c1cccc(C(F)(F)F)c1 (stereo not drawn) [Example 21, N-{3-[(1H-1,3-benzodiazol-2-yl)amino]-3-[3-(trifluoromethyl)phenyl]butyl}acetamide]

More lines, now with the values behind:

SMILES | IC50 [µM]
CC(=O)NCCC(Nc1nc2ccccc2[nH]1)c1cccc(OC(F)(F)F)c1 (single isomer, unassigned; (-)) [Example 22a, (−)-N-{3-[(1H-1,3-benzodiazol-2-yl)amino]-3-[3-(trifluoromethoxy)phenyl]propyl}acetamide] | < 10
O=C(NCC(Nc1nc2ccccc2[nH]1)c1cccc(C(F)(F)F)c1)c1ccon1 (stereo not drawn) [Example 1, N-{2-[(1H-1,3-benzodiazol-2-yl)amino]-2-[3-(trifluoromethyl)phenyl]ethyl}-1,2-oxazole-3-carboxamide] | < 10
O=C(NCC(Nc1nc2ccccc2[nH]1)c1cccc(C(F)(F)F)c1)C1CCC1 (stereo not drawn) [Example 2, N-{2-[(1H-1,3-benzodiazol-2-yl)amino]-2-[3-(trifluoromethyl)phenyl]ethyl}cyclobutanecarboxamide] | < 10
O=C(NCC(Nc1nc2ccccc2[nH]1)c1cccc(C(F)(F)F)c1)c1ccncn1 (stereo not drawn) [Example 5, N-{2-[(1H-1,3-benzodiazol-2-yl)amino]-2-[3-(trifluoromethyl)phenyl]ethyl}pyrimidine-4-carboxamide; trifluoroacetic acid] | < 10
O=C(NCC(Nc1nc2ccccc2[nH]1)c1cccc(C(F)(F)F)c1)c1ccccn1 (stereo not drawn) [Example 6, N-{2-[(1H-1,3-benzodiazol-2-yl)amino]-2-[3-(trifluoromethyl)phenyl]ethyl}pyridine-2-carboxamide; trifluoroacetic acid] | < 10
O=C(NCC(Nc1nc2ccccc2[nH]1)c1cccc(C(F)(F)F)c1)C1CCOCC1 (stereo not drawn) [Example 8, N-{2-[(1H-1,3-benzodiazol-2-yl)amino]-2-[3-(trifluoromethyl)phenyl]ethyl}oxane-4-carboxamide] | < 10
COCC(=O)NC[C@H](Nc1nc2ccccc2[nH]1)c1cccc(C(F)(F)F)c1 [Example 12, N-[(2R)-2-[(1H-1,3-benzodiazol-2-yl)amino]-2-[3-(trifluoromethyl)phenyl]ethyl]-2-methoxyacetamide] | < 10
O=C(CO)NC[C@H](Nc1nc2ccccc2[nH]1)c1cccc(C(F)(F)F)c1 [Example 13, N-[(2R)-2-[(1H-1,3-benzodiazol-2-yl)amino]-2-[3-(trifluoromethyl)phenyl]ethyl]-2-hydroxyacetamide] | < 10
CC(=O)NCCC(Nc1nc2ccccc2[nH]1)c1cccc(C(F)(F)F)c1 (stereo not drawn) [Example 14, N-{3-[(1H-1,3-benzodiazol-2-yl)amino]-3-[3-(trifluoromethyl)phenyl]propyl}acetamide] | < 10
O=C(NCCC(Nc1nc2ccccc2[nH]1)c1cccc(C(F)(F)F)c1)C(F)(F)F (stereo not drawn) [Example 16, N-{3-[(1H-1,3-benzodiazol-2-yl)amino]-3-[3-(trifluoromethyl)phenyl]propyl}-2,2,2-trifluoroacetamide; formic acid] | < 10
CC(=O)NCCCC(Nc1nc2ccccc2[nH]1)c1cccc(C(F)(F)F)c1 (stereo not drawn) [Example 19, N-{4-[(1H-1,3-benzodiazol-2-yl)amino]-4-[3-(trifluoromethyl)phenyl]butyl}acetamide] | < 10
CC(=O)NCCCC(Nc1nc2cc(F)ccc2[nH]1)c1cccc(C(F)(F)F)c1 (stereo not drawn) [Example 20, N-{4-[(5-fluoro-1H-1,3-benzodiazol-2-yl)amino]-4-[3-(trifluoromethyl)phenyl]butyl}acetamide] | < 10
CC(=O)NCCC(Nc1nc2ccccc2[nH]1)c1cccc(OC(F)(F)F)c1 (stereo not drawn) [Example 22, N-{3-[(1H-1,3-benzodiazol-2-yl)amino]-3-[3-(trifluoromethoxy)phenyl]propyl}acetamide] | < 10
